The text below walks through data of patent US20040142994A1, “Azolylcarbynol derivatives of aryl (or heteroaryl) for the treatment of respiratory diseases” (priority 2001, published 2004).

A short description of series [1]: Observation for possible sedative effects in the treated guinea-pigs. Type of series: in vivo, guinea-pig. The following applies: ip. From the text: To do this, the antitussive activity has been studied in guinea-pigs, simultaneously studying the possible sedative effects at the doses used in this study. The method used was the one described by Boura [Boura A L A, Green A F, Saunders I A (1970), An antitussive test using guinea-pigs. Br. J. Pharmacol., 39, 225P], con modificaciones más recientes [Adcock J J, Schneider C, Smith T W (1988), Effects of codeine, morphine a novel opioid pentapeptide BW443C, on cough, nociception and ventilation in the unanaesthetized guinea-pig. Br. J. Pharmacol., 93:93-100; Clay T P, Thompson M A (1985), Irritant induced cough as a model of intrapulmonary airway reactivity. Lung, 163:183-191; Forsberg K, Karlsson J-A, Theodorsson E; Lundberg J M; Persson C G A (1988), Cough and bronchoconstriction mediated by capsaicin-sensitive sensory neurons in the guinea-pig. Pulm Pharmacol, 1: 33-39; Gallico L, Borghi A, Dalla Rosa C, Ceserani R, Tognella S (1994), Moguisteine: a novel peripheral non-narcotic antitussive drug. […]
The guinea-pigs (250-400 g) were deprived of water and food 30 minutes before any intervention. […] During this period, the animals were observed continuously, the number of coughs was counted and the baseline value was taken as control. […] The antitussive activity was assessed for each guinea-pig as the reduction in the number of coughs compared to their previously recorded values. […]

Series [2] relates to cough induced by citric acid aerosol. Description: Antitussive activity against cough induced by citric acid aerosol in guinea-pig. The following applies: ip; for N° of Coughs ± SEM: 30 min before citric acid aerosol (7.5% p/v), 12.5 min observation, N=10; for SD-50: antitussive activity, citric acid aerosol. Type of series: in vivo. The source says:
To do this, the antitussive activity has been studied in guinea-pigs, simultaneously studying the possible sedative effects at the doses used in this study. The method used was the one described by Boura [Boura A L A, Green A F, Saunders I A (1970), An antitussive test using guinea-pigs. Br. J. Pharmacol., 39, 225P], con modificaciones más recientes [Adcock J J, Schneider C, Smith T W (1988), Effects of codeine, morphine a novel opioid pentapeptide BW443C, on cough, nociception and ventilation in the unanaesthetized guinea-pig. Br. J. Pharmacol., 93:93-100; Clay T P, Thompson M A (1985), Irritant induced cough as a model of intrapulmonary airway reactivity. Lung, 163:183-191; Forsberg K, Karlsson J-A, Theodorsson E; Lundberg J M; Persson C G A (1988), Cough and bronchoconstriction mediated by capsaicin-sensitive sensory neurons in the guinea-pig. Pulm Pharmacol, 1: 33-39; Gallico L, Borghi A, Dalla Rosa C, Ceserani R, Tognella S (1994), Moguisteine: a novel peripheral non-narcotic antitussive drug. Br. J. Pharmacol,112:795-800].
The guinea-pigs (250-400 g) were deprived of water and food 30 minutes before any intervention. The guinea-pigs, neither ligated nor anaesthetised, were individually placed in a perspex box (20×12×14 cm.) and left for an accommodation period of 15 minutes. After this period, the animals were exposed to an aerosol of an aqueous solution of citric acid (7.5% p/v, 0.39M). This concentration of citric acid is the minimum concentration capable of producing the maximum number of coughs during the observation period (Forsberg et al., 1988). The aerosol was generated for 2.5 minutes using an ultrasound nebulizer (De Vilbiss, Ultraneb 99; mean particle size 0.9 μm, with a flow of 0.5 ml/min.). The observation period with the animals exposed to the nebulized citric acid in the box was 12.5 minutes (2.5 minutes of aerosol production, followed by an additional 10 minutes). During this period, the animals were observed continuously, the number of coughs was counted and the baseline value was taken as control. Only the guinea-pigs that coughed between 15 and 30 times during the observation period were selected for the study. On the day after the selection the animals were randomly treated with the vehicle or with the study product thirty minutes before being exposed again to the citric acid aerosol. The antitussive activity was assessed for each guinea-pig as the reduction in the number of coughs compared to their previously recorded values. On the other hand, the animals were observed from the time of administration of the product until the end of the experiment for possible sedative effects.

Regarding `CN(C)CCOC(c1ccccc1)c1ccnn1C.O=C(O)CC(O)(CC(=O)O)C(=O)O` (racemic) [Product, (±)-5-{α-[2-(dimethylamine)ethoxy]benzyl}-1-methyl-1H pirazole citrate], the sedative effect result is “does not produce any sedative effect” in series [1] (10, 40 and 100 mg/kg); “no sedative effect” in series [1] (maximum dose used 100 mg/kg). Moreover, the figures for the “N° of Coughs ± SEM” value in series [2] (10 mg/kg), in series [2] (40 mg/kg) and in series [2] (100 mg/kg) were 8.7 ± 0.7, 4.3 ± 0.5 and 2.8 ± 0.4, respectively. Moreover, the “antitussive activity (in words)” value in series [2] (10, 40 and 100 mg/kg) is reported as “good antitussive activity which is perfectly dose-related”. In addition, the inhibition at 10 mg/kg in series [2] (Cavia porcellus, 10 mg/kg, inhibition of coughs) was 37%. Further, 40 mg/kg produced 71% inhibition in series [2] (Cavia porcellus, 40 mg/kg, inhibition of coughs). Also, in series [2] (Cavia porcellus, 100 mg/kg, inhibition of coughs), 100 mg/kg produced 80% inhibition. Further, the SD-50 in series [2] is 17.6 mg/kg, ip; in series [2] (listed as (±)-5-{α-[2(dimethylamine) ethoxy]benzyl}-1-methyl-1H-pirazole citrate) it was 17.6 mg/kg.

As usually defined, the inhibition is the change of the read-out against control, counted positive when it falls. A high value points to strong suppression.
